Laboratory results taken from US11466024B2, “Bicylic compound acting as an inhibitor” (CHIA TAI TIANQING PHARMACEUTICAL GROUP CO., LTD., priority 2017, dated 2022).
Read-outs that look alike come from different tables or passages of the source.

What was measured:
[1] = tested on: imiquimod-induced psoriasis; assay: In vivo pharmacodynamic study in imiquimod (IMQ)-induced psoriasis model in mice; design: species or system C57BL/6 mice; details: for Clinical scores (Mean ± SEM, n = 8): 75 mg/kg
Protocol: 6- to 8-week old female C57BL/6 mice were selected, depilated on the backs, and sensitized two days later except for the sham operation group. On the day of sensitization, the mice were randomly divided into the following 6 groups (8 mice per group). Group I was a sham operation group; Group II was a vehicle control group and PBS was administered; Group III was a positive control group and 5 mg/kg methotrexate was administered; Groups IV, V and VI were ip treatment group, ig treatment group, and topical treatment group of the compound of Example 1, and 75 mg/kg of the compound of Example 1 was administered via intraperitoneal injection, intragastric administration, and dorsal application, respectively. Administration was started on the day of sensitization, once daily for Group III and twice daily for Groups IV to VI. On the day of sensitization, the mice in Groups II to VI were given 60 to 80 mg of imiquimod cream (5%) on the dorsal skin for 4 consecutive days. (Please refer to Bouchaud, G., et al., Epidermal IL-15Ralpha acts as an endogenous antagonist of psoriasiform inflammation in mouse and man. J. Exp. Med., 2013. 210(10): p. 2105-17.)
The mice were weighed daily from the day of sensitization, and the skin scales, induration, and erythema were observed and scored according to a four-grade scoring method: 0 point, no disease; 1 point, mild; 2 points, moderate; 3 points, severe; and 4 points, very severe. (Please refer to Qin, S., et al., Endogenous n-3 polyunsaturated fatty acids protect against imiquimod-induced psoriasis-like inflammation via the IL-17/IL-23 axis. Mol Med Rep, 2014. 9(6): p. 2097-104.)

[2] = Pharmacokinetic evaluation in mice after single IV and PO administration; assay type: in vivo; design: AUC(0-t) / AUC(0-inf): concentration or dose not given beside the values; details: Balb/c mice, plasma; for MRT inf: read-out: MRT0-inf; for MRT last: read-out: MRT0-last
Protocol: Balb/c mice (female, 15 to 30 g, 7- to 9-week old, Shanghai Lingchang) were used to test in vivo pharmacokinetics of compounds. The experimental method was as follows.
The pharmacokinetic characteristics of the compounds were tested by standard protocols after the compounds were administered to rodents by intravenous injection and oral administration. In the experiment, candidate compounds were formulated into clear solutions and administered to mice by a single intravenous injection and a single oral administration. The vehicle for intravenous injection (IV) was a mixed solvent of 5% of DMSO and 95% of 10% Cremophor EL, and the vehicle for oral administration (PO) was a mixed solvent of 1% tween 80, 9% PEG400 and 90% water. Whole blood samples within 48 hours were collected, and centrifuged at 3000 g at 4° C. for 15 minutes. The supernatant was separated to obtain the plasma sample, to which an acetonitrile solution containing an internal standard was added to precipitate the proteins, and the volume of the acetonitrile solution was 20 times that of the plasma sample. The supernatant was obtained by centrifugation, an equal volume of water was added thereto, and the mixture was centrifuged again to get the supernatant for sample injection. Plasma concentrations were quantitatively analyzed by an LC-MS/MS analytical method, and pharmacokinetic parameters, such as peak concentration, peak time, clearance rate, half-life, area under the concentration-time curve, and bioavailability, were calculated.
Of these, “10% Cremophor EL” referred to a deionized aqueous solution of Cremophor EL with a volume concentration of 10%. For example, taking the formulation of a 100 ml solution as an example, 10 ml Cremophor EL was taken and deionized water was added thereto, the mixture was well stirred, and then deionized water was added until the total volume was 100 ml. “Mixed solvent of 5% of DMSO and 95% of 10% Cremophor EL” referred to a mixed solvent comprised of DMSO and 10% Cremophor EL, in which […], and 10% Cremophor EL accounted for 95% of the volume of the mixed solvent. “Mixed solvent of 1% tween 80, 9% PEG400 and 90% water” meant that the volumes of tween 80, PEG400 and water accounted for 1%, 9% and 90% of the volume of the mixed solvent, respectively.

CCS(=O)(=O)c1ccc(CNC(=O)c2cc3c(s2)C(C(C)C)N(C[C@H]2CC[C@H](C(F)(F)F)CC2)C3)nc1 (single isomer, unassigned) [Example 1]
effect on reducing the clinical scores compared with 5 mg/kg of methotrexate ([1]; 75 mg/kg by intraperitoneal injection, intragastric administration and dorsal application, FIG. 5): equivalent
effect on the clinical scores (skin scales, induration) ([1]; 75 mg/kg by intraperitoneal injection, intragastric administration and dorsal application, p<0.01, FIG. 5): reduce the clinical scores significantly
Clinical scores (Mean ± SEM, n = 8) ([1]; ig, Day 1): 0 ± 0
Clinical scores (Mean ± SEM, n = 8) ([1]; ig, Day 2): 0.31 ± 0.13
Clinical scores (Mean ± SEM, n = 8) ([1]; ig, Day 3): 0.50 ± 0.19
Clinical scores (Mean ± SEM, n = 8) ([1]; ig, Day 4): 1.29 ± 0.21
Clinical scores (Mean ± SEM, n = 8) ([1]; ig, Day 5): 1.64 ± 0.18
Clinical scores (Mean ± SEM, n = 8) ([1]; ip, Day 1): 0 ± 0
Clinical scores (Mean ± SEM, n = 8) ([1]; ip, Day 2): 0.25 ± 0.13
Clinical scores (Mean ± SEM, n = 8) ([1]; ip, Day 3): 0.50 ± 0.16
Clinical scores (Mean ± SEM, n = 8) ([1]; ip, Day 4): 1.25 ± 0.19
Clinical scores (Mean ± SEM, n = 8) ([1]; ip, Day 5): 1.81 ± 0.25
Clinical scores (Mean ± SEM, n = 8) ([1]; topical, Day 1): 0 ± 0
Clinical scores (Mean ± SEM, n = 8) ([1]; topical, Day 2): 0.25 ± 0.13
Clinical scores (Mean ± SEM, n = 8) ([1]; topical, Day 3): 0.44 ± 0.15
Clinical scores (Mean ± SEM, n = 8) ([1]; topical, Day 4): 0.94 ± 0.24
Clinical scores (Mean ± SEM, n = 8) ([1]; topical, Day 5): 1.43 ± 0.20
AUCExtra ([2]; IV): 6.28%
AUMCExtra ([2]; IV): 27.8%
Tlast ([2]; IV): 24.0 h
AUCExtra ([2]; PO): 12.1%
AUMCExtra ([2]; PO): 41.3%
Tlast ([2]; PO): 24.0 h
AUC(0-inf) ([2]; female, mouse, IV): 3.92 µM·h
AUC(0-t) ([2]; female, mouse, IV): 3.67 µM·h
C0 ([2]; female, mouse, IV): 955 nM
clearance ([2]; female, mouse, IV): 7.62 mL/min/kg
half-life ([2]; female, mouse, IV): 6.84 h
MRT inf ([2]; female, mouse, IV): 7.66 h
MRT last ([2]; female, mouse, IV): 5.91 h
Vd ([2]; female, mouse, IV, read-out: Vdss): 3.5 L/kg
AUC(0-inf) ([2]; female, mouse, PO): 35.1 µM·h
AUC(0-t) ([2]; female, mouse, PO): 30.9 µM·h
Cmax ([2]; female, mouse, PO): 3520 nM
Tmax ([2]; female, mouse, PO): 1 h
bioavailability ([2]; female, mouse, PO): 89.7%
half-life ([2]; female, mouse, PO): 8.7 h
MRT inf ([2]; female, mouse, PO): 10.8 h
MRT last ([2]; female, mouse, PO): 7.19 h
